# Measured values taken from patent US8178506B2, “Oligomeric compounds and compositions for use in modulation of small non-coding RNAs” (Regulus Therapeutics Inc., priority 2003, dated 2012).
# In the oligonucleotide strings, read from the 5' end, every base follows the letter of its sugar. An asterisk marks phosphorothioate; unmarked linkages are phosphodiester. Other units and linkages are bracketed, terminal groups are in braces. A string of capitals states the bases alone. e = 2'-O-(2-methoxyethyl) (MOE); [5mC] = 5-methylcytosine; d = 2'-deoxy (DNA)
# Key:
# [1] = test system: HeLa cells; assay: Cell cycle assay in HeLa cells; type: cell-based, human; conditions: for phase of the cell cycle in which cells arrest or delay: HeLa; for % cells in cell cycle phase: G1 / % cells in cell cycle phase: G2/M / % cells in cell cycle phase: S / % cells in cell cycle phase: aneuploid / % cells in cell cycle phase: subG1: 48 hours after treatment, relative to untreated control (UTC=100)
# [2] = test system: A549 cells; assay: Cell cycle assay in A549 cells; type: cell-based, human; conditions: for cell cycle delay or arrest (G2/M), dose response / G2/M delay or arrest, dose response: A549, 25-, 50-; for cell cycle delay or arrest (G2/M), dose response: 100- or 150 nM; for cell cycle delay or arrest (G2/M), dose response / % cells in cell cycle phase: G1 / % cells in cell cycle phase: G2/M / % cells in cell cycle phase: S / % cells in cell cycle phase: aneuploid / % cells in cell cycle phase: subG1: 24 hours; for % cells in cell cycle phase: G1 / % cells in cell cycle phase: G2/M / % cells in cell cycle phase: S / % cells in cell cycle phase: aneuploid / % cells in cell cycle phase: subG1: A549 cells, relative to the untreated control cells in that phase; for G2/M delay or arrest, dose response: 100-, or 150 nM
# Procedure: In accordance with the present invention, certain oligomeric compounds targeting miRNAs were selected for dose response studies. Using the cell cycle assay described above, the cell cycle profiles of HeLa or A549 cells treated with varying concentrations of oligomeric compounds of the present invention were assessed.
# Concomittent decreases in the percentage of cells in G1-phase of the cell cycle and increases in the percentage of hypodiploid (subG1) cells were also observed.
# In a further study, A549 cells were treated with 25-, 50-, 100- or 150 nM of the oligomeric compounds ISIS Numbers 338637 (SEQ ID NO: 464) targeted against mir-96, and ISIS 338769 (SEQ ID NO: 596) targeted against mir-130b, ISIS 338836 (SEQ ID NO: 663) targeted against mir-23a, and ISIS 340350 (SEQ ID NO: 855) targeted against mir-95 (Mourelatos). Cells treated with increasing concentrations of oligomeric compounds were compared to untreated cells, to assess the dose-responsiveness of the observed delay or arrest. The random-mer ISIS 29848 was used as a negative control. Cells were prepared for flow cytometry 24-hours after oligonucleotide treatment. Results of these dose response studies are shown in Table 34, where data are expressed as percentage of cells in each phase relative to the untreated control cells in that phase.
# [3] = test system: PEPCK-c; assay: PEPCK-c mRNA expression in HepG2 cells; type: cell-based, human; conditions: HepG2, 1 nM insulin, 100 nM
# [4] = test system: HuVECs; assay: Endothelial tube formation assay in HuVECs; conditions: 75 nM
# [5] = test system: T47D cells; assay: Caspase-3 activity assay (apoptosis) in T47D cells; conditions: caspase assay, 200 nM; conclusion from Tables 9-12
# [6] = HeLa cells, 150 nM oligomeric compound, 24 hours, relative to untreated control (UTC = 100)
# [7] = HeLa cells, 150 nM oligomeric compound
# [8] = HeLa cells, 150 nM, 48 hours, relative to untreated control
substance,measurement,setting,value
"ISIS 338637: SEQ ID NO: 464, targeted against mir-96 (TCAGAGCGGAGAGACACAAG; all 2'-MOE, all phosphorothioate, methylation of C not given here)",phase of the cell cycle in which cells arrest or delay,"[1]; 150 nM, 24 hours",G1-phase
same,phase of the cell cycle in which cells arrest or delay,"[1]; 150 nM, 48 hours",S-phase
same,"cell cycle delay or arrest (G2/M), dose response",[2],dose-responsive delay or arrest
"338836 (antisense TCCTCGGTGGCAGAGCTCAG; all 2'-MOE, all phosphorothioate, methylation of C not given here) [compound 338836]",% cells aneuploid,[1]; [6],150%
same,% cells in cell cycle phase G1,[1]; [6],185%
same,% cells in cell cycle phase G2/M,[1]; [6],105%
same,% cells in cell cycle phase S,[1]; [6],53%
same,% cells in cell cycle phase subG1,[1]; [6],153%
same,% cells in cell cycle phase: G1,[1]; [7],52%
same,% cells in cell cycle phase: G2/M,[1]; [7],169%
same,% cells in cell cycle phase: S,[1]; [7],152%
same,% cells in cell cycle phase: aneuploid,[1]; [7],165%
same,% cells in cell cycle phase: subG1,[1]; [7],811%
same,% cells in cell cycle phase G1,[1]; [8],97%
same,% cells in cell cycle phase G2/M,[1]; [8],121%
same,% cells in cell cycle phase S,[1]; [8],96%
same,% cells in cell cycle phase aneuploid,[1]; [8],114%
same,% cells in cell cycle phase subG1,[1]; [8],303%
same,% cells in cell cycle phase: G1,[2]; 25 nM,97%
same,% cells in cell cycle phase: G2/M,[2]; 25 nM,97%
same,% cells in cell cycle phase: S,[2]; 25 nM,103%
same,% cells in cell cycle phase: aneuploid,[2]; 25 nM,99%
same,% cells in cell cycle phase: subG1,[2]; 25 nM,76%
same,% cells in cell cycle phase: G1,[2]; 50 nM,113%
same,% cells in cell cycle phase: G2/M,[2]; 50 nM,98%
same,% cells in cell cycle phase: S,[2]; 50 nM,89%
same,% cells in cell cycle phase: aneuploid,[2]; 50 nM,111%
same,% cells in cell cycle phase: subG1,[2]; 50 nM,232%
same,% cells in cell cycle phase: G1,[2]; 100 nM,117%
same,% cells in cell cycle phase: G2/M,[2]; 100 nM,116%
same,% cells in cell cycle phase: S,[2]; 100 nM,80%
same,% cells in cell cycle phase: aneuploid,[2]; 100 nM,153%
same,% cells in cell cycle phase: subG1,[2]; 100 nM,68%
same,% cells in cell cycle phase: G1,[2]; 150 nM,117%
same,% cells in cell cycle phase: G2/M,[2]; 150 nM,149%
same,% cells in cell cycle phase: S,[2]; 150 nM,69%
same,% cells in cell cycle phase: aneuploid,[2]; 150 nM,114%
same,% cells in cell cycle phase: subG1,[2]; 150 nM,178%
"ISIS 328342: SEQ ID NO: 451, targeting mir-203 (e[5mC]*eA*eA*eT*eT*dG*d[5mC]*dG*d[5mC]*dT*dA*d[5mC]*dA*dG*dA*eA*e[5mC]*eT*eG*eT)",reduction of PEPCK-c mRNA expression,[3],61%
same,phase of the cell cycle in which cells arrest or delay,"[1]; 150 nM, both 24 and 48 hours",G2/M-phase
same,"G2/M delay or arrest, dose response",[2],dose-responsive G2/M delay or arrest
"338637 (antisense TCAGAGCGGAGAGACACAAG; all 2'-MOE, all phosphorothioate, methylation of C not given here) [compound 338637]",% cells aneuploid,[1]; [6],188%
same,% cells in cell cycle phase G1,[1]; [6],170%
same,% cells in cell cycle phase G2/M,[1]; [6],84%
same,% cells in cell cycle phase S,[1]; [6],70%
same,% cells in cell cycle phase subG1,[1]; [6],88%
same,% cells in cell cycle phase: G1,[1]; [7],90%
same,% cells in cell cycle phase: G2/M,[1]; [7],117%
same,% cells in cell cycle phase: S,[1]; [7],109%
same,% cells in cell cycle phase: aneuploid,[1]; [7],210%
same,% cells in cell cycle phase: subG1,[1]; [7],239%
same,% cells in cell cycle phase: G1,[2]; 25 nM,100%
same,% cells in cell cycle phase: G2/M,[2]; 25 nM,101%
same,% cells in cell cycle phase: S,[2]; 25 nM,99%
same,% cells in cell cycle phase: aneuploid,[2]; 25 nM,99%
same,% cells in cell cycle phase: subG1,[2]; 25 nM,89%
same,% cells in cell cycle phase: G1,[2]; 50 nM,110%
same,% cells in cell cycle phase: G2/M,[2]; 50 nM,107%
same,% cells in cell cycle phase: S,[2]; 50 nM,89%
same,% cells in cell cycle phase: aneuploid,[2]; 50 nM,120%
same,% cells in cell cycle phase: subG1,[2]; 50 nM,86%
same,% cells in cell cycle phase: G1,[2]; 100 nM,126%
same,% cells in cell cycle phase: G2/M,[2]; 100 nM,115%
same,% cells in cell cycle phase: S,[2]; 100 nM,73%
same,% cells in cell cycle phase: aneuploid,[2]; 100 nM,146%
same,% cells in cell cycle phase: subG1,[2]; 100 nM,67%
same,% cells in cell cycle phase: G1,[2]; 150 nM,123%
same,% cells in cell cycle phase: G2/M,[2]; 150 nM,144%
same,% cells in cell cycle phase: S,[2]; 150 nM,66%
same,% cells in cell cycle phase: aneuploid,[2]; 150 nM,135%
same,% cells in cell cycle phase: subG1,[2]; 150 nM,216%
GGCTGTCAATTCATAGGTCAG (anti-miR; chemistry not fully specified) [ISIS 327902],phase of the cell cycle in which cells arrest or delay,"[1]; 150 nM, 24 hours",G2/M-phase
same,phase of the cell cycle in which cells arrest or delay,"[1]; 150 nM, 48 hours",S- and G2/M-phases
same,"G2/M delay or arrest, dose response",[2],dose-responsive G2/M delay or arrest
same,tube formation,[4],suppressed tube formation
ISIS 328383: chimeric 2′-MOE gapmer targeted against the mir-192-1 precursor (eA*eG*eA*eG*eG*dG*dG*dA*dG*dA*d[5mC]*dG*dA*dG*dA*eG*e[5mC]*eA*e[5mC]*eT),phase of the cell cycle in which cells arrest or delay,"[1]; 150 nM, 24 hours",G2/M-phase
same,phase of the cell cycle in which cells arrest or delay,"[1]; 150 nM, 48 hours",S- and G2/M-phases
same,"G2/M delay or arrest, dose response",[2],dose-responsive G2/M delay or arrest
same,apoptosis in T47D cells,[5],induce apoptosis
"ISIS 338836: SEQ ID NO: 663, targeted against mir-23a (TCCTCGGTGGCAGAGCTCAG; all 2'-MOE, all phosphorothioate, methylation of C not given here)",phase of the cell cycle in which cells arrest or delay,"[1]; 150 nM, 24 hours",G1-phase
same,phase of the cell cycle in which cells arrest or delay,"[1]; 150 nM, 48 hours",S-phase
same,"cell cycle delay or arrest (G2/M), dose response",[2],dose-responsive delay or arrest
"ISIS 340350: SEQ ID NO: 855, targeted against mir-95 (Mourelatos) (TGCTCAATAAATACCCGTTGAA; all 2'-MOE, all phosphorothioate, methylation of C not given here)",phase of the cell cycle in which cells arrest or delay,"[1]; 150 nM, 24 hours",G1-phase
same,phase of the cell cycle in which cells arrest or delay,"[1]; 150 nM, 48 hours",S-phase
same,"cell cycle delay or arrest (G2/M), dose response",[2],dose-responsive delay or arrest
GCTTCCCAGCGGCCTATAGT (chemistry not given here) [ISIS 338769],phase of the cell cycle in which cells arrest or delay,"[1]; 150 nM, 24 hours",G1-phase
same,phase of the cell cycle in which cells arrest or delay,"[1]; 150 nM, 48 hours",S-phase
same,"cell cycle delay or arrest (G2/M), dose response",[2],dose-responsive delay or arrest
